Legend:
[1] = biological target: T1, Cyclooxygenase (Rattus norvegicus, UniProt P35355+Q63921); experiment: Inhibition of cyclooxygenase in rat RBL1 cells; assay type: cell-based; details: rbl-1
T1 sequence (P35355 whole entry): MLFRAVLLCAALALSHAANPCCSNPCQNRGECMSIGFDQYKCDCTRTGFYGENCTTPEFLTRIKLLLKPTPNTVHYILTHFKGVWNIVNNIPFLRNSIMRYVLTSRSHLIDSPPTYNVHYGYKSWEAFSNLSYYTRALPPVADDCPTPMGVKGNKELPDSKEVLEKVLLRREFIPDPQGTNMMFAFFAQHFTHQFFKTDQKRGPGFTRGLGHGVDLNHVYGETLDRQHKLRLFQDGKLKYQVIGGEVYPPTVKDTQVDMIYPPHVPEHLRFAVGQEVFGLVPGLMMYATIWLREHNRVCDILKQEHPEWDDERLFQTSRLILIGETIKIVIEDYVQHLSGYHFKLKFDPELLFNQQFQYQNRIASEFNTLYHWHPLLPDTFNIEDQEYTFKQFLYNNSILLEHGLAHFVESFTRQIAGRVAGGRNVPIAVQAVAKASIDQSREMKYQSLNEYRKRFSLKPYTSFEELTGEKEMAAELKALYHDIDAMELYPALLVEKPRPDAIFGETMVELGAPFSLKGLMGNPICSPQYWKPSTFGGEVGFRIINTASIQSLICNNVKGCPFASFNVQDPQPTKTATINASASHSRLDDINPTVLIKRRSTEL
T1 sequence (Q63921 whole entry): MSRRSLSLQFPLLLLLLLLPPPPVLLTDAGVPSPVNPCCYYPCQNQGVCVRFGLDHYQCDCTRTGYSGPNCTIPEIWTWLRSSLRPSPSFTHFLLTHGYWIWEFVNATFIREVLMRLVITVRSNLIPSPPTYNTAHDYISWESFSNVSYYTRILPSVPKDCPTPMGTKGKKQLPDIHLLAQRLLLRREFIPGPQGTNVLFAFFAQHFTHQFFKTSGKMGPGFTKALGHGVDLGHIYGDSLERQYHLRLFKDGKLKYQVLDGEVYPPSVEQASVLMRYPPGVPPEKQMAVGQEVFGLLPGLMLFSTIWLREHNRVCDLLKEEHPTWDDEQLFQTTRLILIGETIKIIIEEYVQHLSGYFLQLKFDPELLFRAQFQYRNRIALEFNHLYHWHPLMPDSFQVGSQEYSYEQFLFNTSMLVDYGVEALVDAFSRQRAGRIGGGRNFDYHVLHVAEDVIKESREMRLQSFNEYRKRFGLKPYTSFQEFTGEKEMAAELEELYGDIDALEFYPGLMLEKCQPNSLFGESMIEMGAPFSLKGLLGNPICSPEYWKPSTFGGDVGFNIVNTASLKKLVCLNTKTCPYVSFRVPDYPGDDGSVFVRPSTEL

[2] = biological target: T2, Polyunsaturated fatty acid 5-lipoxygenase (Rattus norvegicus, UniProt P12527); experiment: Inhibition of 5-lipoxygenase in rat RBL1 cells; assay type: cell-based, RBL-1
T2 sequence (P12527 whole entry): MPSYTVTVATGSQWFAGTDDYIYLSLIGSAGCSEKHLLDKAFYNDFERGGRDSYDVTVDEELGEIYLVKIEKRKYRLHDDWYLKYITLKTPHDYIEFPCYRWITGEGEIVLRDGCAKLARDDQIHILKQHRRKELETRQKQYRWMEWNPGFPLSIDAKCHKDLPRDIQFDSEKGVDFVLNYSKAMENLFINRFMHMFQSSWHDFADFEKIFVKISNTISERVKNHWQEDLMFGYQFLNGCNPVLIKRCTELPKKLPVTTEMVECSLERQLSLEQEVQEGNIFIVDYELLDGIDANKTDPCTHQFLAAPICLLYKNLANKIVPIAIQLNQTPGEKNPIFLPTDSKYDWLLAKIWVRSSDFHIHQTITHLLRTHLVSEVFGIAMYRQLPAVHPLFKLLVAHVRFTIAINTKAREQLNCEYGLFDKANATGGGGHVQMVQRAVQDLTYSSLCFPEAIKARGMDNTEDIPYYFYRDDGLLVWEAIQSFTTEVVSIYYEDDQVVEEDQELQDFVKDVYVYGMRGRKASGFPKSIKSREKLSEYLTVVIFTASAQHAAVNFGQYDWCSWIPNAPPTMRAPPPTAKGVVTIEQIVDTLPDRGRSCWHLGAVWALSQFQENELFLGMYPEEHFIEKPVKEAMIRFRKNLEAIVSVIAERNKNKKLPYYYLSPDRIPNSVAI

Row | SMILES | IC50 [1] [µM] | IC50 [2] [µM]
1 | O=C(/C=C/c1ccc(O)c(O)c1)c1c(O)cc(O)cc1O [3,4,2',4',6'-PENTAHYDROXYCHALCONE] | 0.14 | –
2 | COc1ccc(/C=C/C(=O)c2ccccc2)c(O)c1 | 15 | 15
3 | O=C(/C=C/c1ccc(O)cc1)c1ccc(O)cc1O [ISOLIQUIRITIGENIN] | 35 | –
4 | CCOc1ccc(OC)cc1C(=O)/C=C/c1ccccc1 | 27 | 27
5 | COc1ccc(/C=C/C(=O)c2ccccc2)cc1 [4-METHOXY CHALCONE] | 20 | 20
6 | CC(C)c1ccc(O)c(C(=O)/C=C/c2ccccc2)c1 | 4 | 4
7 | O=C(/C=C/c1ccc(O)c(O)c1)c1ccccc1 | 0.043 | –
8 | COc1cc(/C=C/C(=O)c2ccc(Cl)cc2)ccc1O | 8.9 | –
9 | COc1ccc(OC)c(/C=C/C(=O)c2ccccc2)c1 | 7.8 | 7.8
10 | O=C(/C=C/c1ccc(O)c(O)c1)c1ccc(O)cc1O [BUTEIN] | 0.0046 | –
11 | Cc1ccc(/C=C/C(=O)c2ccccc2)c(C)c1 | 17 | 17
12 | Cc1ccc(C)c(C(=O)/C=C/c2ccccc2)c1 | 16 | 16
13 | COc1cccc(OC)c1/C=C/C(=O)c1ccccc1 | 370 | 370
14 | CN(C)c1cccc(/C=C/C(=O)c2ccccc2)c1 | 9.8 | 9.8
15 | COc1ccc(C(=O)/C=C/c2ccc(O)c(OC)c2)cc1 | 12 | –
16 | O=C(/C=C/c1ccc(Cl)cc1)c1ccccc1 [4-CHLORO CHALCONE] | 85 | 85
17 | COc1ccc(O)c(C(=O)/C=C/c2ccccc2)c1 | 41 | 41
18 | CC(C)Oc1ccc(O)c(C(=O)/C=C/c2ccccc2)c1 | 11 | 11
19 | CCCCOc1ccc(O)c(C(=O)/C=C/c2ccccc2)c1 | 1 | 1
20 | O=C(/C=C/c1ccc(O)c(O)c1)c1cccc(O)c1 | 0.0042 | –
21 | COc1ccc(C)cc1C(=O)/C=C/c1ccccc1 | 24 | 24
22 | Cc1cccc(/C=C/C(=O)c2ccccc2)c1 | 27 | 27
23 | COc1ccc(O)c(/C=C/C(=O)c2ccccc2)c1 | 41 | 41

The next lines start with the values.

Row | IC50 [1] [µM] | IC50 [2] [µM] | SMILES
24 | 39 | 39 | Cc1ccc(O)c(C(=O)/C=C/c2ccccc2)c1
25 | 14 | 14 | COc1ccc(OC(C)C)cc1C(=O)/C=C/c1ccccc1
26 | 7.8 | 7.8 | COc1ccc(OC)c(C(=O)/C=C/c2ccccc2)c1
27 | 0.023 | – | O=C(/C=C/c1ccc(O)c(O)c1)c1ccccc1O
28 | 16 | 16 | COc1cc(/C=C/C(=O)c2ccccc2)cc(OC)c1OC
29 | 10 | 10 | COc1ccc(/C=C/C(=O)c2ccccc2)c(OC)c1
30 | 18 | 18 | COc1ccc(/C=C/C(=O)c2ccccc2)cc1OC
31 | 9 | 9 | COc1cc(/C=C/C(=O)c2ccccc2)ccc1O
32 | 64 | 64 | O=C(/C=C/c1ccccc1)c1cc(O)ccc1O
33 | 6.5 | 6.5 | COc1cccc(/C=C/C(=O)c2ccccc2)c1
34 | 4.7 | 4.7 | CN(C)c1ccc(/C=C/C(=O)c2ccccc2)cc1
35 | 27 | 27 | COc1ccccc1/C=C/C(=O)c1ccccc1
36 | 43 | 43 | O=C(/C=C/c1ccccc1)c1ccccc1 [CHALCONE]
37 | 41 | 41 | CC(C)Oc1ccc(/C=C/C(=O)c2ccccc2)cc1
38 | 92 | 92 | O=C(/C=C/c1ccccc1Cl)c1ccccc1
39 | 58 | 58 | O=C(/C=C/c1ccccc1C(F)(F)F)c1ccccc1
40 | 2.4 | 2.4 | CCOc1ccc(OCC)c(C(=O)/C=C/c2ccccc2)c1
41 | 38 | 38 | CCOc1ccc(OC)c(C(=O)/C=C/c2ccccc2)c1
42 | 23 | 23 | O=C(/C=C/c1ccc([N+](=O)[O-])cc1)c1ccccc1
43 | 76 | 76 | Cc1ccc(/C=C/C(=O)c2ccccc2)cc1
44 | 5.3 | 5.3 | CCOc1ccc(O)c(C(=O)/C=C/c2ccccc2)c1
45 | 400 | 400 | Cc1cc(C)c(/C=C/C(=O)c2ccccc2)c(C)c1

Source: ChEMBL document CHEMBL2429716, “Molecular modeling studies of substituted 3,4-dihydroxychalcone derivatives as 5-lipoxygenase and cyclooxygenase inhibitors” (Med Chem Res, 2013)
